What all share (format): cell-based
The target of test [1] is T1, human α1A-adrenergic receptor (Homo sapiens, UniProt P35348).
T1 sequence (P35348 1-466): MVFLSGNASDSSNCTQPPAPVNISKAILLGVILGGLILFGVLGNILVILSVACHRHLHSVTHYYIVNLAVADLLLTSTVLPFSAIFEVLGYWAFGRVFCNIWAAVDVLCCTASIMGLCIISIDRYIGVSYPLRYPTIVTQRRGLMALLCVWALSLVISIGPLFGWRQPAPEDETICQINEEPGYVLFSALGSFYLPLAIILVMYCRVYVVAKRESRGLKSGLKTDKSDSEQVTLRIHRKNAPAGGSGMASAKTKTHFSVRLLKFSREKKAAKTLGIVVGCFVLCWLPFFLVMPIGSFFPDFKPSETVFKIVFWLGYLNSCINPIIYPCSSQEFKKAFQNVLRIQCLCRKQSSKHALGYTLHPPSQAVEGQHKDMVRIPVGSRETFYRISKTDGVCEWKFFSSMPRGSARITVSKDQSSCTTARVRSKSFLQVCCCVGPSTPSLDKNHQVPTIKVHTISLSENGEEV
The test can be described thus: Test Case 4-B: human α1A-adrenergic receptor agonist activity (Cerep cellular functional GPCR, alpha 1A). Further details: expressed in transfected cells. As to conditions: concentration 10 μM; for α1 receptor % of Control Agonist Response, Control; Epinephrine: epinephrine = 100%; for α1 receptor % of Control Agonist Response, Control; Norepinephrine: norepinephrine = 100%. From the text: Measurement of Human α1A-Adrenergic Receptor Agonist Activity
The human α1A-adrenergic receptor agonist activity] can be measured by […] Functional GPCR·Gs, alpha 1A (Ref. 722-36a) listed on p. 52 of the Cerep 2008 CATALOG IN VITRO PHARMACOLOGY & ADME-TOX.

The target of test [2] is T2, human β2-adrenergic receptor (Homo sapiens, UniProt P07550).
T2 construct: expressed in transfected cells; host or cells: CHO (Chinese hamster ovary) cells, pcDNA3
The experiment in a line: Test Case 3-C: human β2-adrenergic receptor agonist activity (Cerep cellular functional GPCR, beta 2). To be noted: concentration 10 μM, isoproterenol = 100%. From the text:
Measurement of Human β2-Adrenergic Receptor Agonist Activity

Test [3] has as its target T3, human β1-adrenergic receptor (Homo sapiens, UniProt P08588).
T3 construct: expressed in transfected cells; host or cells: CHO (Chinese hamster ovary) cells, pcDNA3
The experiment in a line: Test Case 2-C: human β1-adrenergic receptor agonist activity (Cerep cellular functional GPCR, beta 1). As to conditions: concentration 10 μM, isoproterenol = 100%. From the text:
Measurement of Human β1-Adrenergic Receptor Agonist Activity

Each structure is given as a SMILES string.

T3 sequence (P08588 whole entry): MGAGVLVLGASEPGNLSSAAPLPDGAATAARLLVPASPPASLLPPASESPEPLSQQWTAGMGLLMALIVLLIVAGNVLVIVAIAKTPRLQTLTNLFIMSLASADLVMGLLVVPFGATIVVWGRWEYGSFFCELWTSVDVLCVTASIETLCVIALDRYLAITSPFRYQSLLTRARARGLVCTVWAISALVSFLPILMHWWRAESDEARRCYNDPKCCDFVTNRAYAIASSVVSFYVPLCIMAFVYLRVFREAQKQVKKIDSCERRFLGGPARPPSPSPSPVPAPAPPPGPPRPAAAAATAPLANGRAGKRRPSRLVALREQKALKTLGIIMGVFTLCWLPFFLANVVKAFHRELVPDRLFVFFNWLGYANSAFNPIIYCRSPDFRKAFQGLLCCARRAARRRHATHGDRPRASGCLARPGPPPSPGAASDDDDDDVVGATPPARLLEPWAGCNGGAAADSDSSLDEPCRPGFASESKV
T2 sequence (P07550 whole entry): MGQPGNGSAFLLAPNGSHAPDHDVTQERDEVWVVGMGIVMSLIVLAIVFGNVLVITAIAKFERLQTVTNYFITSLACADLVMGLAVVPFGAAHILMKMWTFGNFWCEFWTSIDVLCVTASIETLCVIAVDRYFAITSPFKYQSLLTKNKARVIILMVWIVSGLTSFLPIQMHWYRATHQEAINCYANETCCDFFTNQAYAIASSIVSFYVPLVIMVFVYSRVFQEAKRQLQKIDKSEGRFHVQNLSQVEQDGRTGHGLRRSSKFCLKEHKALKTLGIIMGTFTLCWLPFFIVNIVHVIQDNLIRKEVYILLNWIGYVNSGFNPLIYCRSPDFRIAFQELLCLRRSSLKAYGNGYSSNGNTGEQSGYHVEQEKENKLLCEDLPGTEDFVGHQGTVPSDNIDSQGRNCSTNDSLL

As to `Cc1n[nH]c2cc(OCCNC[C@H](O)c3cccc(NS(=O)(=O)c4cc(F)c(F)cc4F)c3)ccc12` [ex85, (R)-2,4,5-trifluoro-N-(3-(1-hydroxy-2-(2-(3-methylindazol-6-yloxy)ethylamino)ethyl)phenyl) benzenesulfonamide], in test [1], the “α1 receptor % of Control Agonist Response, Control; Epinephrine” value (“α1 receptor % … Control; Epinephrine” below) amounted to 0.1% and the “α1 receptor % of Control Agonist Response, Control; Norepinephrine” value (from here on “α1 receptor % … Norepinephrine”) was 0.1%. For the same compound, the “β2 receptor % of Control Agonist Response” value (“β2 receptor %” below) in test [2] amounted to 1.0%. Further, the “β1 receptor % of Control Agonist Response” value (from here on “β1 receptor %”) in test [3] came to 30%.

Turning to `Nc1ccc(F)c(S(=O)(=O)Nc2cccc([C@@H](O)CNCCOc3ccc4c(OC(F)F)n[nH]c4c3)c2)c1` [ex106], in test [1], the “α1 receptor % … Control; Epinephrine” value is listed as −0.2% and the “α1 receptor % … Norepinephrine” value is given as −0.2%. In addition, the “β2 receptor %” value in test [2] is given as 2.1%. The “β1 receptor %” value in test [3] was 11%.

On to `CCc1n[nH]c2cc(OCCNC[C@H](O)c3cccc(NS(=O)(=O)c4ccccc4F)c3)ccc12` [ex128, (R)-N-(3-(2-(2-(3-ethylindazol-6-yloxy)ethylamino)-1-hydroxyethyl)phenyl)-2-fluorobenzene-sulfonamide], for which, in test [1], the “α1 receptor % … Control; Epinephrine” value came to 16% and the “α1 receptor % … Norepinephrine” value is 14%. Further, the “β2 receptor %” value in test [2] came to 0.3%. The “β1 receptor %” value in test [3] is 10%.

Turning to `CCc1n[nH]c2cc(OCCNC[C@H](O)c3cccc(NS(=O)(=O)c4cc(N)ccc4F)c3)ccc12` [ex148, (R)-5-amino-N-(3-(2-(2-(3-ethylindazol-6-yloxy)-ethylamino)-1-hydroxyethyl)phenyl)-2-fluorobenzene-sulfonamide], in test [1], the “α1 receptor % … Control; Epinephrine” value is given as −0.2% and the “α1 receptor % … Norepinephrine” value is −0.2%. The “β2 receptor %” value in test [2] turned out to be 0.8%. For the same compound, in test [3], the “β1 receptor %” value came out at 15%.

For the compound `O=S(=O)(Nc1cccc([C@@H](O)CNCCOc2ccc3c(Cl)n[nH]c3c2)c1)c1cccnc1` [ex155, (R)-N-(3-(2-(2-(3-chloroindazol-6-yloxy)ethylamino)-1-hydroxyethyl)phenyl)pyridine-3-sulfonamide], in test [1] (10 µM), the “α1 receptor % … Control; Epinephrine” value is listed as 0% and the “α1 receptor % … Norepinephrine” value worked out at 0%. The “β2 receptor %” value in test [2] (10 µM) is given as 2.2%. In addition, the “β1 receptor %” value in test [3] was found to be 12%.

In the case of `O=S(=O)(Nc1cccc([C@@H](O)CNCCOc2ccc3c(Cl)n[nH]c3c2)c1)c1cccnc1` [ex156, (R)-N-(3-(2-(2-(3-chloroindazol-6-yloxy)ethylamino)-1-hydroxyethyl)phenyl)pyridine-3-sulfonamide], in test [1] (10 µM), the “α1 receptor % … Control; Epinephrine” value is reported as 3.9% and the “α1 receptor % … Norepinephrine” value was 3.4%. Moreover, in test [2] (10 µM), the “β2 receptor %” value is given as 3.5%. Besides, the “β1 receptor %” value in test [3] is reported as 12%.

Take `O=S(=O)(Nc1cccc([C@@H](O)CNCCOc2ccc3c(Cl)n[nH]c3c2)c1)c1ccsc1` [ex157, (R)-N-(3-(2-(2-(3-chloroindazol-6-yloxy)ethylamino)-1-hydroxyethyl)phenyl)thiophene-3-sulfonamide]: in test [1], the “α1 receptor % … Control; Epinephrine” value was 8.1% and the “α1 receptor % … Norepinephrine” value stood at 7.0%. Also, the “β2 receptor %” value in test [2] was 3.2%. The “β1 receptor %” value in test [3] is listed as 7.0%.

As to `O=S(=O)(Nc1cccc([C@@H](O)CNCCOc2ccc3c(Cl)n[nH]c3c2)c1)c1cn[nH]c1` [ex167, (R)-N-(3-(2-(2-(3-chloroindazol-6-yloxy)ethylamino)-1-hydroxyethyl)phenyl)pyrazole-4-sulfonamide], in test [1], the “α1 receptor % … Control; Epinephrine” value amounted to 26% and the “α1 receptor % … Norepinephrine” value is reported as 22%. The “β2 receptor %” value in test [2] turned out to be 0.3%. The “β1 receptor %” value in test [3] is given as 6.4%.

In the case of `Nc1ccc(F)c(S(=O)(=O)Nc2cccc([C@@H](O)CNCCOc3ccc4c(C(F)(F)F)n[nH]c4c3)c2)c1` [ex185, (R)-5-amimo-2-fluoro-N-(3-(1-hydroxy-2-(2-(3-(trifluoro-methyl)-indazol-6-yloxy)ethylamino)ethyl)phenyl)ben-zenesulfonamide], in test [1], the “α1 receptor % … Control; Epinephrine” value is 6.4% and the “α1 receptor % … Norepinephrine” value is listed as 6%. For the same compound, in test [2], the “β2 receptor %” value was 0.3%. Further, the “β1 receptor %” value in test [3] is 13%.

On to `O=S(=O)(Nc1cccc([C@@H](O)CNCCOc2ccc3c(C(F)(F)F)n[nH]c3c2)c1)c1cccnc1` [ex186, (R)-N-(3-(1-hydroxy-2-(2-(3-(trifluoromethyl)-indazol-6-yloxy)ethylamino)ethyl)phenyl)pyridine-3-sulfonamide], for which, in test [1], the “α1 receptor % … Control; Epinephrine” value is on record as 0.6% and the “α1 receptor % … Norepinephrine” value was 0.5%. In addition, the “β2 receptor %” value in test [2] was determined as 1.9%. Besides, the “β1 receptor %” value in test [3] stood at 7.2%.

Consider `O=S(=O)(Nc1cccc([C@@H](O)CNCCOc2ccc3c(C(F)(F)F)n[nH]c3c2)c1)c1cn[nH]c1` [ex198, (R)-N-(3-(1-hydroxy-2-(2-(3-(trifluoromethyl)-indazol-6-yloxy)ethylamino)ethyl)phenyl)-pyrazole-4-sulfonamide], for which, in test [1], the “α1 receptor % … Control; Epinephrine” value is listed as 19% and the “α1 receptor % … Norepinephrine” value came out at 17%. Further, in test [2], the “β2 receptor %” value is −0.5%. Also, the “β1 receptor %” value in test [3] stood at 3.5%.

Take `O=S(=O)(Nc1cc([C@@H](O)CNCCOc2ccc3c(C(F)(F)F)n[nH]c3c2)ccc1Cl)C1CC1` [ex199, (R)-N-(2-chloro-5-(1-hydroxy-2-(2-(3-(tri-fluoromethyl)-indazol-6-yloxy)ethylamino)-ethyl)phenyl)-cyclo-propanesulfonamide]: in test [1], the “α1 receptor % … Control; Epinephrine” value stood at 17% and the “α1 receptor % … Norepinephrine” value is reported as 15%. For the same compound, in test [2], the “β2 receptor %” value came out at 8.8%. In test [3], the “β1 receptor %” value came to 8.0%.

For `Nc1cccc(S(=O)(=O)Nc2cccc([C@@H](O)CNCCOc3ccc4c(C5CC5)n[nH]c4c3)c2)c1F` [ex215, (R)-3-amino-N-(3-(2-(2-(3-cyclopropyl-indazol-6-yloxy)ethyl-amino)-1-hydroxy-ethyl)phenyl)-2-fluorobenzene-sulfonamide], in test [1], the “α1 receptor % … Control; Epinephrine” value was found to be 0.1% and the “α1 receptor % … Norepinephrine” value was found to be 0.1%. For the same compound, in test [2], the “β2 receptor %” value was 0.5%. Moreover, the “β1 receptor %” value in test [3] was 23%.

Take `Nc1ccc(F)c(S(=O)(=O)Nc2cccc([C@@H](O)CNCCOc3ccc4c(Cl)n[nH]c4c3)c2)c1` [ex242, (R)-5-amino-N-(3-(2-(2-(3-chloroindazole-6-yloxy)ethylamino)-1-hydroxyethyl)phenyl)-2-fluorobenzenesulfonamide]: in test [1], the “α1 receptor % … Control; Epinephrine” value came to 0.7% and the “α1 receptor % … Norepinephrine” value was determined as 0.6%. In addition, in test [2], the “β2 receptor %” value was −0.2%. Also, the “β1 receptor %” value in test [3] amounted to 9.4%.

(Values after patent US20120225909A1, “INDAZOLE ANALOG” (priority 2009, published 2012).)
